Assay results reported in patent US20130150399A1, “INHIBITORS OF THE UNFOLDED PROTEIN RESPONSE AND METHODS FOR THEIR USE” (The Board of Trustees of the Leland Stanford Junior …, priority 2006, published 2013).

Assays:
HT1080 cells = assay: Clonogenic survival (colony formation) assay, HT1080; format: cell-based, human
Procedure: Several of the candidate irestatins were tested in a hypoxia clonogenic survival assay. […] HT1080 fibrosarcoma cells stably were treated with 1 uM of the indicated irestatin or left untreated, and incubated in hypoxia (0.01% oxygen) for 48 hrs at 37° C. Cells were harvested and counted, and allowed to form colonies under normal oxygen tension. Survival rate is expressed as the fraction of colonies formed divided by the total number of cells seeded for each condition. For all experiments, cells were plated in triplicate, and all experiments were repeated at least three times. These experiments were repeated using MiaPaCa2 cells in place of the HT1080 fibrosarcoma cells.
For hypoxia survival assays, cells were grown in 60 mm dishes until reaching at 50-70% confluence and shifted to hypoxia (0.1% O2) for 48 hrs. Cells were trypsinized, counted using a hemocytometer, and replated in triplicate at 1,000-20,000 cells per plate in normal culture medium. After 10-12 days of growth under normal oxygen conditions, colonies were stained with 0.2% crystal violet in ethanol and counted. Survival values are expressed as the number of colonies divided by the total number of cells seeded for each condition, normalized to the plating efficiency under normal oxygen conditions. At least three independent experiments were performed.
A. Effect of irestatin 9389 on PERK and ATF6 pathways. HT1080 cells were treated with vehicle alone (lanes 1-4) or 2.5 μM irestatin 9389 (lanes 5-8) and cultured under aerobic conditions for 18 hours (N) or shifted to hypoxia for the indicated times. Protein lysates were analyzed by Western blot analysis using antisera specific for ATF6 (top), CHOP/GADD153 (middle) or actin (bottom). […] Cells were harvested, counted, and allowed to grow under normal culture conditions for 11-12 days. […] D. Quantification of clonogenic survival assay. […] F. Quantification of TUNEL-positive cells. […] Cells were harvested at the indicated times and counted by hemocytometer. Values represent the mean calculated from triplicate experiments+/−SEM.

XBP-luciferase reporter = assay: In vivo bioluminescence imaging of XBP-luciferase reporter tumor xenografts; design: species or system SCID mice
Procedure: HT1080 fibrosarcoma cells (2×10^6) stably expressing the XBP-luciferase reporter were implanted s.c. into severe combined immune deficient (SCID) mice. Ten minutes prior to imaging, mice were injected i.p. with D-luciferin (150 mg/kg) solubilized in PBS. Optical bioluminescence imaging was performed using the IVIS charged-coupled device camera system (Caliper Life Sciences, Hopkinton, Mass.). Mice were imaged for 1-4 minutes per acquisition scan. Signal intensities were analyzed using Living Image software (Caliper).
A. Irestatin 9389 impairs IRE1α activity in implanted tumor xenografts. Equal numbers (2×10^6) of XBP-luciferase or CMV-luciferase reporter cells were implanted s.c. into SCID mice. After one week, mice were treated with irestatin 9389 (50 mg/kg), followed by optical bioluminescence imaging. B. Inhibition of tumor growth by irestatin 9389. HT1080 s.c. tumor xenografts were established in SCID mice and allowed to reach a mean volume of 150 mm^3 before treatment. Irestatin 9389 (50 mg/kg) or vehicle control was administered q 2d by i.p. injection and continued for 2 weeks, for a total of 6 doses. Tumor volumes were calculated based on caliper measurements taken every 3-5 days. Data points represent the mean volume calculated from at least 7 tumors per group, with SEM shown in one direction. Mean mouse weights+/−SEM are shown in bottom graph. C.
The increased sensitivity of irestatin-treated cells to hypoxic stress in vitro indicate that selective inhibition of IRE1α signaling could impact tumor growth. […] In contrast, XBP-1s was not detected in normal pancreas specimens (0/20), and infrequently observed in chronic pancreatitis (1/29) (FIG. 15). To explore the effects to irestatin 9389 in vivo, we first established animal dosing parameters using real-time bioluminescence imaging of SCID mice that had been implanted subcutaneously (s.c.) with tumor cells stably expressing the XBP-luciferase reporter. […] The XBP-luciferase signal returned to basal levels by 24 hours after treatment. […] (FIG. 16).

## Cc1csc(NC(=O)CSc2nc3c(c(C(F)(F)F)c2C#N)CCC3)n1 [Compound 9389]
HT1080 cells; 2.5 μM, hypoxia for 48 hours
  colony formation: strongly inhibited colony formation
HT1080 cells; 2.5 μM, normal oxygen conditions
  survival of HT1080 cells (colony formation): negligible effect on the survival
HT1080 cells; exposure during hours 40-48 of hypoxia, data not shown
  decrease in the rate of colony formation: 8 fold
XBP-luciferase reporter; after treatment, 50-60 mg/kg
  time by which XBP-luciferase signal returned to basal levels: ≤ 24 h
XBP-luciferase reporter; single doses of 50-60 mg/kg
  duration of XBP-luciferase reporter inhibition after the injection: 6 to 8 h
  inhibition of XBP-luciferase reporter in tumors: robustly inhibited
